1 molecule from patent US12329799B2, “Peptidyl inhibitors of calcineurin-NFAT interaction” (Ohio State Innovation Foundation, priority 2018, dated 2025) can be followed below.

Positions of bridges follow the written chain, without caps; N, C: chain ends. Non-standard residues stand in square brackets, D forms with d. Residues, ends and D or L forms follow the SMILES beside them. Chains are numbered I, II in the order given. *: point of attachment. Benzoyl(2,3-Cl2) = O=C(c1cccc(Cl)c1Cl)*; 2Nal = N[C@@H](Cc1ccc2ccccc2c1)C(=O)O; Tle = CC(C)(C)[C@H](N)C(=O)O; βAla = NCCC(=O)O

One data set has as its system H441 (lung cancer) cells. The data set can be described thus: MTT assay, H441. The data set is classed as cell-based. As to conditions: 72 h. The procedure: (§1) MTT Proliferation Assay. HeLa, Jurkat-Lucia, or H441 cells were seeded into a 96-well microplate (5000 cells per well) in full growth media and incubated at 37° C. overnight. A serial dilution of each compound was prepared in DPBS and then added to each well. The treated cells were incubated at 37° C. with 5% CO2 for 72 h. Following compound treatment, 10 μL of MTT stock solution was added to each well. After an additional 4 h at 37° C., 100 μL of SDS-HCl solubilizing solution was added to each well and the plate was returned to the incubator overnight at 37° C. A Tecan Infinite M1000 Pro microplate reader was used the following morning to measure the absorbance of the formazan product at 565 nm.
A general note: Formazan colour is commonly taken as a measure of viable cells.

The subject of a further data set is HeLa cells. Put plainly: MTT assay, HeLa. The data set is classed as cell-based. As to conditions: 72 h. The procedure: as §1
Potential cytotoxicity of CNI101 (SEQ ID NO: 206) and CNI103 (SEQ ID NO: 208) was tested on HeLa cells by the MTT proliferation assay. HeLa cells were seeded into a 96-well microplate (5000 cells per well) in full growth media and incubated at 37° C. overnight. A serial dilution of each inhibitor was prepared in DPBS and then added to each well. The treated cells were incubated at 37° C. with 5% CO2 for 72 h. Following compound treatment, 10 μL of MTT stock solution was added to each well. After an additional 4 h at 37° C., 100 μL of SDS-HCl solubilizing solution was added to each well and the plate was returned to the incubator overnight at 37° C. A Tecan Infinite M1000 Pro microplate reader was used the following morning to measure the absorbance of the formazan product at 565 nm.

Data set [1] concerns NFATc3 nuclear translocation. The data set can be described thus: LPS-induced NFATc3 nuclear translocation in macrophages (immunofluorescence). The data set is classed as cell-based, mouse. Conditions: 1 μM peptide pretreatment, LPS stimulation. The procedure:
Endotoxin lipopolysaccharide (LPS) was previously shown to induce NFATc3 translocation from the cytoplasm into the nucleus and upregulation of NFATc3 target genes in macrophages.
Immunofluorescence. Mouse BMDM were pretreated with 1 μM of control CPP9 (SEQ ID NO: 76)-VAVAA (SEQ ID NO: 224)-Biotin or CNI93-Biotin peptides for 5 min and stimulated with PBS or LPS (100 ng/mL) for 1 h. Treated cells were washed, fixed in 4% paraformaldehyde and incubated sequentially with anti-rabbit NFATc3, Anti-rabbit Alexa Fluor™ 488 Conjugate and Alexa Fluor™ 594 Streptavidin. Cells were washed three times in 1×PBS after incubation with each antibody.

Regarding `CC[C@H](C)[C@H](NC(=O)[C@@H](NC(=O)c1cccc(Cl)c1Cl)C(C)(C)C)C(=O)N[C@H](C(=O)N[C@H](C(=O)N[C@H](C(=O)N[C@@H](CCC(N)=O)C(=O)N[C@@H](Cc1c[nH]cn1)C(=O)N[C@H](CC(C)C)C(=O)N[C@@H](CO)C(=O)NCCC(=O)N[C@@H](CCCCNC(=O)CC[C@@H]1NC(=O)[C@@H](CCCNC(=N)N)NC(=O)[C@H](CCCNC(=N)N)NC(=O)[C@@H](CCCNC(=N)N)NC(=O)[C@H](CCCNC(=N)N)NC(=O)[C@H](Cc2ccc3ccccc3c2)NC(=O)[C@@H](Cc2ccccc2)NC1=O)C(N)=O)[C@@H](C)O)[C@@H](C)CC)C(C)(C)C` [CNI93] (I: {Benzoyl(2,3-Cl2)}-[Tle]I[Tle]ITQH[dL]S[βAla]K-NH2 / II: cyclo([2Nal]R[dR]R[dR]E[dF]); amide I:11-II:6 (inferred); ring closure inferred), the cytotoxicity result in the data set with H441 (lung cancer) cells (H441, 25 μM) is on record as “No significant cytotoxicity”; in the data set with HeLa cells (25 μM), “No significant cytotoxicity”. Moreover, the cell viability result is “Reduction in cell viability” in the data set on H441 (lung cancer) cells (H441, 50 μM) and “Reduction in cell viability” in the data set with HeLa cells (50 μM). Also, in data set [1], the “LPS-induced nuclear translocation of NFATc3” value is recorded as “completely blocked”.
